Experimental data from patent publication US20250186396A1, “COMPOSITIONS AND METHODS FOR THE TREATMENT OF GLIOBLASTOMA WITH A DUAL TARGETING ANTI-TUMOR COMPOSITION” (Northwestern University, priority 2023, published 2025).

Experiments:
[1] = LC-MS/MS quantification of BAPN in plasma and brain; type: in vivo, C57BL/6 mice; details: BAPN 2 g/L in drinking water; concentration in plasma and brain after 1, 2, 4, 8 hours
Procedure: Mass spectrometry. A high-performance liquid chromatography tandem mass spectrometry (LC-MS/MS) assay was developed to quantify BAPN and SR9009 in plasma and brain of C57BL/6 mice. Specifically, the blood and brain tissues were collected after 1, 2, 4, and 8 hours of the administration of BAPN (2 g/L in drinking water) or SR9009 (100 mg/kg body weight, i.p.). The plasma was generated using the standard centrifugation techniques, and the brain tissues were pulverized by cryogenic grinding with liquid nitrogen. The plasma and brain tissue samples were mixed with internal standards, deproteinized with MeOH, and processed into LC-MS/MS to test the concentration of BAPN or SR9009. The analysis was performed at the Mass Spectrometry Core in Research Resources Center of University of Illinois at Chicago.

PATZ1 and PRRX1 = assay: RT-qPCR of transcription factors in PTEN-null GBM cells; type: cell-based, human; details: U87 and U251 cells; BAPN 200 μM
Procedure: (§1) Cell Culture. The GBM cell lines U87, U251, SF763, LN229, and CT2A, as well as 293T cells were cultured in Dulbecco's Modified Eagle's Medium (DMEM; Gibco, #11995-065). The mouse glioma cell line GL261 cells and SIM-A9 microglia were cultured in Dulbecco's Modified Eagle Medium-Ham's F12 medium (Gibco, #10565-018). HMC3 microglia were cultured in Eagle's Minimum Essential Medium (ATCC, #30-2003). THP-1 macrophages were cultured in RPMI 1640 medium (Gibco, #11875093). All cell lines were cultured in the indicated medium containing 10% fetal bovine serum (FBS; Fisher Scientific, #16140071) and 1:100 antibiotic-antimycotic (Gibco, #15140-122), and were purchased from the American Type Culture Collection (ATCC). Human GSCs (GSC23 and GSC7-10) and mouse GBM tumor-derived 005 GSCs and QPP7 GSCs were cultured in neural stem cell (NSC) proliferation media (Millipore, #SCM005) containing 20 ng/mL epidermal growth factor (EGF; PeproTech, #AF-100-15) and basic fibroblast growth factor (bFGF; PeproTech, #100-18B). Human GSCs were gifted by Dr. Frederick F. Lang from the Brain Tumor Center (The University of Texas MD Anderson Cancer Center). […]
Quantitative real-time PCR (RT-qPCR). […] RNA was quantified by NanoDrop spectrophotometers and then the All-In-One 5× RT MasterMix (Applied Biological Materials, #G592) was used to reverse-transcribe RNA into cDNA in T100 Thermal Cycler (Bio-Rad). […]

LOX = assay: Immunoblots for LOX in CT2A cells and 005 GSCs; type: cell-based, mouse; details: immunoblot, SR9009 5 μM
Procedure: as §1, with “Center). 005 GSCs and QPP7 GSCs were provided by Dr. Samuel D. Rabkin (Massachusetts General Hospital) and Dr. Jian Hu (The University of Texas MD Anderson Cancer Center), respectively. PTEN CRISPR KO in SF763 and LN229 cells were generated.” for “Center).”

SMILES	ability to cross the blood-brain barrier (BBB) [1]	mRNA expression of PATZ1 (PATZ1 and PRRX1)	mRNA expression of PRRX1 (PATZ1 and PRRX1)	LOX expression (LOX)
N#CCCN [BAPN, β-aminopropionitrile]	showed an ability to cross the blood-brain barrier	upregulated	upregulated	
CCOC(=O)N1CCC(CN(Cc2ccc(Cl)cc2)Cc2ccc([N+](=O)[O-])s2)C1 (stereo not shown) [SR9009]				did not affect
